Test results as given in ChEMBL document CHEMBL5113511, “Discovery of Small-Molecule Degraders of the CDK9-Cyclin T1 Complex for Targeting Transcriptional Addiction in Prostate Cancer” (J Med Chem, 2022).
Calls of active or inactive are those of the source. The calls are words filed in the database; no cut-off is given here.

Legend:
[1] = molecular target: T1, CDK9/cyclin T1 (Homo sapiens) (UniProt O60563+P50750); assay: Induction of CDK9/Cyclin T1 degradation in human 22Rv1 cells assessed as downregulation of ZNF517 gene expression at 2 uM incubated for 24 hrs by RNA-Seq based analysis; assay type: cell-based
[2] = molecular target: T1, CDK9/cyclin T1 (Homo sapiens); assay: Induction of CDK9/Cyclin T1 degradation in human 22Rv1 cells assessed as downregulation of NAT1 gene expression at 2 uM incubated for 24 hrs by RNA-Seq based analysis; assay type: cell-based
[3] = molecular target: T1, CDK9/cyclin T1 (Homo sapiens); assay: Induction of CDK9/Cyclin T1 degradation in human 22Rv1 cells assessed as downregulation of BTG1 gene expression at 2 uM incubated for 24 hrs by RNA-Seq based analysis; assay type: cell-based
[4] = molecular target: T1, CDK9/cyclin T1 (Homo sapiens); assay: Induction of CDK9/Cyclin T1 degradation in human 22Rv1 cells assessed as downregulation of MYCL gene expression at 2 uM incubated for 24 hrs by RNA-Seq based analysis; assay type: cell-based
CWR22R [5] = assay: Downregulation of CDK6 level in human 22Rv1 cells at 3 uM measured after 12 hrs by DIA-based proteomics analysis; assay type: functional, cell-based
[6] = molecular target: T2, Cyclin-dependent kinase 9 (Homo sapiens, UniProt P50750); assay: Induction of Flag-tagged CDK9 (unknown origin) polyubiquitination expressed in HEK293T cells co-transfected with HA-tagged Cyclin T1 and Myc ubiquitin assessed as increase in K48-linkage poly-ubiqutinated CDK9 level at 1 to 2 uM incubated for 20 hrs by western blot analysis; assay type: cell-based; details: dose 1-2 µM
T2 sequence (P50750 whole entry): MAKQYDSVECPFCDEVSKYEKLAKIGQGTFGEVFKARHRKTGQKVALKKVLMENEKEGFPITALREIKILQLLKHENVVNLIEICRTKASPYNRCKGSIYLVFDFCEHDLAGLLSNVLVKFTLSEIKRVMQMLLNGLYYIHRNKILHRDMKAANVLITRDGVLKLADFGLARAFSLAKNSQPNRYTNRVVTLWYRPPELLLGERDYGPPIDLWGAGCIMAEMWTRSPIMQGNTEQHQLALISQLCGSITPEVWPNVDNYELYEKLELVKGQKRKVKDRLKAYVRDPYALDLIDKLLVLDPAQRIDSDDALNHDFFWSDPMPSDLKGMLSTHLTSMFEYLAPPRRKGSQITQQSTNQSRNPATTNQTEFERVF

[7] = molecular target: T1, CDK9/cyclin T1 (Homo sapiens); assay: Induction of CDK9/Cyclin T1 degradation in human 22Rv1 cells assessed as decrease in cyclin C protein expression at 3 uM measured for 36 hrs by DIA-based proteomics analysis; assay type: cell-based
CWR22R [8] = assay: Inhibition of colony formation in human 22Rv1 cells at 100 to 200 nM treated for 14 days with replacement with fresh medium containing compound for every 48 hrs by crystal violet staining based analysis; assay type: functional, cell-based; details: dose 100-200 nM, time 14.0 day
CWR22R [9] = assay: Downregulation of CDK7 level in human 22Rv1 cells at 3 uM measured after 12 hrs by DIA-based proteomics analysis; assay type: functional, cell-based
[10] = molecular target: T2, Cyclin-dependent kinase 9; assay: Induction of HyT-mediated degradation of CDK9 in human 22Rv1 cells at 3 uM measured after 5 to 18 hrs by immunoblot analysis; assay type: cell-based; details: time 5-18 hrs
[11] = molecular target: Cyclin-dependent kinase 7 (Homo sapiens) (UniProt P50613); assay: Induction of CDK7 degradation in human 22Rv1 cells assessed as downregulation of CDK7 level at 3 uM measured after 12 hrs by DIA-based proteomics analysis; assay type: cell-based
Sequence of Cyclin-dependent kinase 7 (Homo sapiens) (P50613 whole entry, canonical isoform): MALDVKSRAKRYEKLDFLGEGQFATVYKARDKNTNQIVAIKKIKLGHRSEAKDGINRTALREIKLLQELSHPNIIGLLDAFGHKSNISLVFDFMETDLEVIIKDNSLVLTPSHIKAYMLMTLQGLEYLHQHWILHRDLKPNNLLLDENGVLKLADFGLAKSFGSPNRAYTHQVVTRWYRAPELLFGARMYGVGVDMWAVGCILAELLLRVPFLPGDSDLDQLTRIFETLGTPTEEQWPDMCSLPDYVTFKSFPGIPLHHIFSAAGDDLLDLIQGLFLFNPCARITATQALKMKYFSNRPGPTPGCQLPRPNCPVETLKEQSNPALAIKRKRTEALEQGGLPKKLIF

[12] = molecular target: T1, CDK9/cyclin T1 (Homo sapiens); assay: Induction of CDK9/Cyclin T1 degradation in human 22Rv1 cells assessed as downregulation of AR-V7 splice variant protein expression at 2 uM measured after 24 hrs by immunoblot analysis; assay type: cell-based
[13] = molecular target: T2, Cyclin-dependent kinase 9; assay: Induction of HyT-mediated degradation of CDK9 in human 22Rv1 cells assessed as reduction in CDK9 protein level at 3 uM measured after 24 to 48 hrs by immunoblot analysis; assay type: cell-based; details: time 24-48 hrs
CWR22R [14] = assay: Induction of apoptosis in human 22Rv1 cells at 0.3 to 1 uM incubated for 24 hrs by AnnexinV-FITC/PI staining based flow cytometry; assay type: functional, cell-based; details: dose 0.3-1 µM
Cyclin-T2 (Homo sapiens) = Cyclin-T2 (Homo sapiens) (UniProt O60583); assay: Induction of HyT-mediated degradation of cyclin T2 in human 22Rv1 cells assessed as reduction in cyclin T2 level at 3 to 6 uM incubated for 24 hrs by immunoblot analysis; assay type: cell-based; details: dose 3-6 µM
Sequence of Cyclin-T2 (Homo sapiens) (O60583 whole entry): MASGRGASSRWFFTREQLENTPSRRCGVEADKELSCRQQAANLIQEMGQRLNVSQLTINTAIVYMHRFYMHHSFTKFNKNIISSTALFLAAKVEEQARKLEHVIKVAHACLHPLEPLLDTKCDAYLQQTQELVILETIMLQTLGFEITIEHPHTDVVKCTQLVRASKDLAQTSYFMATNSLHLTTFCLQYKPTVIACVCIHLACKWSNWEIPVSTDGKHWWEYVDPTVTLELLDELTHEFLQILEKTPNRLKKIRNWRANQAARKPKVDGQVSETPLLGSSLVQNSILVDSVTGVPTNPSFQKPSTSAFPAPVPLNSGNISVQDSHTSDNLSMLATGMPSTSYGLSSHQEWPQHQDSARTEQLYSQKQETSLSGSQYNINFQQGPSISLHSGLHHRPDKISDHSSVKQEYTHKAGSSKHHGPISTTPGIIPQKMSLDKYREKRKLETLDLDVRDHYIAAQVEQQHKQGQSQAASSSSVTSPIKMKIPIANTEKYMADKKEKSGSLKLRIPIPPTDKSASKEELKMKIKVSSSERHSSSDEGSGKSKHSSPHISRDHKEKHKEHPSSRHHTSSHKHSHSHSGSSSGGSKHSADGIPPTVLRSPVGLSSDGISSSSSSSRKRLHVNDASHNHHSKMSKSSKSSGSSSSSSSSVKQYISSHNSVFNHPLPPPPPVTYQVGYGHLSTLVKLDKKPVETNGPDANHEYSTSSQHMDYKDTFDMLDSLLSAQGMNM

[15] = molecular target: T1, CDK9/cyclin T1 (Homo sapiens); assay: Induction of CDK9/Cyclin T1 degradation in human 22Rv1 cells assessed as downregulation of KLK3 protein expression at 0.3 to 3 uM incubated fo 24 hrs by immunoblot analysis; assay type: cell-based; details: dose 0.3-3 µM
[16] = molecular target: T2, Cyclin-dependent kinase 9; assay: Induction of HyT-mediated degradation of CDK9 in human 22Rv1 cells at 3 uM measured for 36 hrs by DIA-based proteomics analysis; assay type: cell-based
[17] = molecular target: T1, CDK9/cyclin T1 (Homo sapiens); assay: Induction of CDK9/Cyclin T1 degradation in human 22Rv1 cells assessed as downregulation of AR protein expression at 3 uM measured for 36 hrs by DIA-based proteomics analysis; assay type: cell-based
[18] = molecular target: T1, CDK9/cyclin T1 (Homo sapiens); assay: Induction of CDK9/Cyclin T1 degradation in human 22Rv1 cells assessed as downregulation of AR protein expression at 2 uM measured after 48 hrs by immunoblot analysis relative to control; assay type: cell-based
Cyclin-T1 [19] = molecular target: T3, Cyclin-T1 (Homo sapiens, UniProt O60563); assay: Induction of Hyt-mediated degradation of cyclin T1 in human 22Rv1 cells assessed as downregulation of cyclin T1 level at 2 uM incubated for 24 hrs by DIA-based proteomics analysis; assay type: cell-based
T3 sequence (O60563 whole entry): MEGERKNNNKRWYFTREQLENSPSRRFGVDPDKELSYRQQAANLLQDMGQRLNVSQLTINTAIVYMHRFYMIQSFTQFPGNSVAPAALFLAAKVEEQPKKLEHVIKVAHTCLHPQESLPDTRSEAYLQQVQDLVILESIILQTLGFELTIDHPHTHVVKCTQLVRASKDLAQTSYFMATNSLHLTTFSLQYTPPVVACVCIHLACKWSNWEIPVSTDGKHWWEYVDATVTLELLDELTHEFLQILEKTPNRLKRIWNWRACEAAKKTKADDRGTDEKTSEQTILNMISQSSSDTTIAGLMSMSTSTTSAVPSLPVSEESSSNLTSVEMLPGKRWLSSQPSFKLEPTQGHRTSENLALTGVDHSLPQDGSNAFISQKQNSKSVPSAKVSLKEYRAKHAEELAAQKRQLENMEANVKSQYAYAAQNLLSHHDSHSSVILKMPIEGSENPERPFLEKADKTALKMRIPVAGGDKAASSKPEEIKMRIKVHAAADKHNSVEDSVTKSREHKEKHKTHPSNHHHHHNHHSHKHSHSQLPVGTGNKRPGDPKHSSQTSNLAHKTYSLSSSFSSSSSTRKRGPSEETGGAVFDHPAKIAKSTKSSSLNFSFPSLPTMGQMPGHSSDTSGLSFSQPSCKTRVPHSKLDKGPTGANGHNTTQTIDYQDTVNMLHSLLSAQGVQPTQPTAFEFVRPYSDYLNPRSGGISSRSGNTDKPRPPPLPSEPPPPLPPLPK

[20] = molecular target: T1, CDK9/cyclin T1 (Homo sapiens); assay: Induction of CDK9/Cyclin T1 degradation in human 22Rv1 cells assessed as downregulation of KLK1 gene expression at 2 uM incubated for 24 hrs by RNA-Seq based analysis; assay type: cell-based
[21] = molecular target: T1, CDK9/cyclin T1 (Homo sapiens); assay: Induction of CDK9/Cyclin T1 degradation in human 22Rv1 cells assessed as downregulation of c-Myc protein expression at 2 uM measured after 48 hrs by immunoblot analysis; assay type: cell-based
[22] = molecular target: T1, CDK9/cyclin T1 (Homo sapiens); assay: Induction of CDK9/Cyclin T1 degradation in human 22Rv1 cells assessed as downregulation of IKBKE gene expression at 2 uM incubated for 24 hrs by RNA-Seq based analysis; assay type: cell-based
[23] = molecular target: T1, CDK9/cyclin T1 (Homo sapiens); assay: Induction of CDK9/Cyclin T1 degradation in human 22Rv1 cells assessed as downregulation of CDK20 gene expression at 2 uM incubated for 24 hrs by RNA-Seq based analysis; assay type: cell-based
[24] = molecular target: T1, CDK9/cyclin T1 (Homo sapiens); assay: Induction of CDK9/Cyclin T1 degradation in human 22Rv1 cells assessed as downregulation of AR protein expression at 2 uM measured after 24 hrs by immunoblot analysis; assay type: cell-based
[25] = molecular target: T1, CDK9/cyclin T1 (Homo sapiens); assay: Induction of CDK9/Cyclin T1 degradation in human 22Rv1 cells assessed as decrease in cyclin A2 protein expression at 3 uM measured for 36 hrs by DIA-based proteomics analysis; assay type: cell-based
[26] = molecular target: T1, CDK9/cyclin T1 (Homo sapiens); assay: Induction of CDK9/Cyclin T1 degradation in human 22Rv1 cells assessed as downregulation of KLK15 gene expression at 2 uM incubated for 24 hrs by RNA-Seq based analysis; assay type: cell-based
[27] = molecular target: T1, CDK9/cyclin T1 (Homo sapiens); assay: Induction of CDK9/Cyclin T1 degradation in human 22Rv1 cells assessed as downregulation of MYCN gene expression at 2 uM incubated for 24 hrs by RNA-Seq based analysis; assay type: cell-based
[28] = molecular target: G1/S-specific cyclin-E1 (Homo sapiens) (UniProt P24864); assay: Induction of HyT-mediated degradation of cyclin E1 in human 22Rv1 cells assessed as reduction in cyclin E1 level at 6 uM incubated for 24 hrs by immunoblot analysis; assay type: cell-based
Sequence of G1/S-specific cyclin-E1 (Homo sapiens) (P24864 whole entry): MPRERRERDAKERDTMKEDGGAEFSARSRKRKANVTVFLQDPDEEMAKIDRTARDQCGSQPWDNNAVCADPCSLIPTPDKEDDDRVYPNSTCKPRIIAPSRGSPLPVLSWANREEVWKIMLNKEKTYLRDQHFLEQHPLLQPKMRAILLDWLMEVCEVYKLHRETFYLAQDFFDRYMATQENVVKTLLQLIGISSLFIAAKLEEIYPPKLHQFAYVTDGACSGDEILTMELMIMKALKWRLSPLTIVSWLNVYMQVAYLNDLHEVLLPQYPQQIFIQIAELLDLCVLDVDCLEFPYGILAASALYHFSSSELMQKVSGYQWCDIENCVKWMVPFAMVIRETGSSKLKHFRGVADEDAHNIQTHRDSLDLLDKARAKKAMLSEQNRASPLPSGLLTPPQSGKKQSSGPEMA

[29] = molecular target: T1, CDK9/cyclin T1 (Homo sapiens); assay: Induction of CDK9/Cyclin T1 degradation in human 22Rv1 cells assessed as downregulation of CCNE2 gene expression at 2 uM incubated for 24 hrs by RNA-Seq based analysis; assay type: cell-based
[30] = molecular target: Cyclin-dependent kinase 1 (Homo sapiens) (UniProt P06493); assay: Induction of CDK1 degradation in human 22Rv1 cells assessed as downregulation of CDK1 level at 3 uM measured after 12 hrs by DIA-based proteomics analysis; assay type: cell-based
Sequence of Cyclin-dependent kinase 1 (Homo sapiens) (P06493 whole entry, looked up): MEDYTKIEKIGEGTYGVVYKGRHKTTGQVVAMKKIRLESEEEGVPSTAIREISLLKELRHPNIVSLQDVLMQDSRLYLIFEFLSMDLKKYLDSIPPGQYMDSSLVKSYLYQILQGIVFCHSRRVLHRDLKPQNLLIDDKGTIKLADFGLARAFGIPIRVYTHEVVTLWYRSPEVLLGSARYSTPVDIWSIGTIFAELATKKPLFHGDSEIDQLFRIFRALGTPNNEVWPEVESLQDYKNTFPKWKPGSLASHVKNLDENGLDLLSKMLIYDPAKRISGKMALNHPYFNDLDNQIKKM

Cyclin-T1 [31] = molecular target: T3, Cyclin-T1; assay: Induction of HyT-mediated degradation of Cyclin T1 in human 22Rv1 cells at 3 uM measured after 5 to 18 hrs by immunoblot analysis; assay type: cell-based; details: time 5-18 hrs

Activity [1]: Active
Activity [2]: Active
Activity [3]: Active
Activity [4]: Active
Activity [6]: Active
Activity [7]: Active
Activity [10]: Active
Activity [11]: Active
Activity [12]: Active
Activity [13]: Active
Activity (Cyclin-T2 (Homo sapiens)): Active
Activity [15]: Active
Activity [16]: Active
Activity [17]: Active
Activity [18]: 100%
Activity (Cyclin-T1 [19]): Active
Activity [20]: Active
Activity [21]: Active
Activity [22]: Active
Activity [23]: Active
Activity [24]: Active
Activity [25]: Active
Activity [26]: Active
Activity [27]: Active
Activity [28]: Active
Activity [29]: Active
Activity [30]: Active
Activity (Cyclin-T1 [31]): Active
Compound: CC(C)[C@@H]1CC[C@@H](C)C[C@H]1OCC(=O)NCCS(=O)(=O)N1CCC(C(=O)Nc2ncc(SCc3ncc(C(C)(C)C)o3)s2)CC1
inhibition (CWR22R [5]): Active
inhibition (CWR22R [8]): Active
inhibition (CWR22R [9]): Active
Activity (CWR22R [14]): Active
